Target: Dual specificity tyrosine-phosphorylation-regulated kinase 1A (Homo sapiens, UniProt Q13627)
Test: Kinase Assay: The DYRK1A kinase assay was run using the Ser/Thr 18 peptide Z-lyte assay kit according to manufacturer's instructions (Life Technologies—a Division of Thermo-Fisher). This is a non-radioactive assay using fluorescence resonance energy transfer (FRET) between coumarin and fluorescein to detect kinase activity which is represented as a ratio of coumarin emission/fluorescein emission.Briefly, recombinant DYRK1A kinase, ATP and Ser/Thr peptide 18 were prepared in 1× Kinase buffer to final concentrations of 0.19 μg/mL, 30 μM, and 4 μM respectively. The mixture was allowed to incubate with the representative compounds for one hour at room temperature. All reactions were performed in duplicate. Unphosphorylated (“0% Control”) and phosphorylated (“100% control”) forms of Ser/Thr 18 served as control reactions. Additionally, an 11-point dose-response curve of Staurosporine (1 uM top) was run to serve as a positive compound control.

| EC50 | Compound |
| --- | --- |
| 10 nM | O=C1CCc2cccc(c2)-c2cncc3[nH]c(nc23)-c2n[nH]c3ccc(cc23)-c2cncc(c2)N1 |
| 9 nM | O=C1CCc2cccc(c2)-c2cncc(c2)NC(=O)c2n[nH]c3ccc(cc23)-c2cncc(c2)CN1 |
| 3 nM | c1cc2cc(c1)-c1cncc3[nH]c(nc13)-c1n[nH]c3ccc(cc13)-c1cncc(c1)CNC2 |
| 5 nM | O=C1COc2cccc(c2)-c2cncc3[nH]c(nc23)-c2n[nH]c3ccc(cc23)-c2cncc(c2)N1 |
| 2 nM | CN1CCCCN(C)c2nccc3[nH]c(nc23)-c2n[nH]c3ccc(cc23)-c2cncc(c2)C1 |

— ChEMBL document CHEMBL5727930, “Indazole containing macrocycles and therapeutic uses thereof” (2020)
